Laboratory results as given in patent publication US9265774B2, “Methods, compounds and pharmaceutical compositions for treating anxiety and mood disorders” (New York University, priority 2011, dated 2016).
Where two headings read alike, the source gives them in different places.

Assays:
[1] = tested on: home cage exploration in handling-stressed mice; experiment: Home cage activity after handling and injection stress; type: in vivo
Experimental: FIG. 15 depicts the effect of acute i.p. dp6FNE (1 mg/kg) or cirazoline (0.1 mg/kg), (N=1), on home cage activity in terms of rearing and ambulation, Veh (N=12).
6FNE has a more rapid and/or greater antidepressant effect than either of these agonists because 6FNE is the only known selective α-agonist that has full efficacy at all brain α-adrenoceptors and 6FNE works within minutes (Stone, et al. 2011) whereas cirazoline was given to mice over several months prior to testing in one model (forced swim test) in the above experiment by Doze et al, 2009. […] (Stone, E A, Lin Y, Quartermain, D, Unpublished results)
It is known that peripheral administration of α1-agonists without phentolamine impairs exploratory behavior in the open field (Yang, et al., J Pharmacol exp Ther 1990; 255: 1064-1070).

[2] = tested on: immobility in tail suspension test; experiment: Tail suspension test (TST); type: in vivo, mice; conditions: intracerebral administration
Experimental: (§1) In the RFS study, mice were subjected to 4 daily 15 min swims as described above and were injected i.p. with either vehicle or dp6FNE (3 mg/kg) 15 min prior to the 5th swim. In the TST study, animals were injected similarly before a 6 min test. […] The animals were anesthetized and perfused for immuno-histochemistry 70 min after the start of the swim or tail suspension. Brains were processed as described previously for double-label immunofluorescent Fos/tyrosine hydroxylase staining of all sections through the LC and for single-label Fos staining through the full PVH (Stone et al., Brain Res (2009) 1291: 21-31).
To determine if dp6FNE was active in a more traditional test of antidepressant activity, it was given as above 15 min prior to a tail suspension test.
(§2) The first test involves an acute stress-induced model of depression (Steru, et al., Psychopharmacology 1985; 85: 367-370) whereas the second, a more prolonged, chronic depression that is more akin to chronic human depression (Stone, et al., Pharmacol Biochem Behav 2008; 91: 190-195).

[3] = tested on: repeated open-space swim model; experiment: Repeated open-space (forced) swim test; type: in vivo, mice; conditions: for antidepressant activity in the repeated open-space forced swim test: intracerebral administration
Excerpt: as §2

[4] = tested on: locomotor behavior in an open field; experiment: Open field locomotor behavior after ivt. 6FNE or i.p. dp6FNE versus amphetamine; type: in vivo, mice
Experimental: 6FNE and dp6FNe were tested for their effects on motor activity by measuring locomotor behavior in an open field after either ivt. (6FNE) or i.p. injection (dp6fNE) in mice. These mice were compared to animals that were either non handled or received either a vehicle ivt injection or an i.p. injection of the stimulant, amphetamine (5 mg/kg). The results are shown in FIG. 6 and in (Stone, Lin Y, Sarfraz Y, and Quartermain D, 2011). […] Furthermore, the increase in activity after 6FNE was minor in comparison with the bona fide stimulant, amphetamine which produced a 10 fold increase. The small increase over the vehicle group therefore appears to be the result of a reduction of the stress caused by the handling and restraint for the ivt. injection which is in agreement with the reduced activation of brain stress circuits discussed above. This interpretation was supported by an examination of the time in the center or risky area of the field spent by the various groups. […] A slight reduction in motor behavior at the low doses (0.1-0.3 mg/kg) were, however, observed.

[5] = prazosin: at 0.2 mg/kg in mice; cited from earlier work
[6] = tested on: model of chronic depression in mice (repeated forced swim); conditions: for acute antidepressant (anti-immobility) effect in the RFS: single acute i.p. administration minutes before the swim, low doses, prazosin 0.2 mg/kg present
Excerpt: We administered the pro-drugs shortly before one or more tests of antidepressant activity including reversal of immobility during tail suspension and forced swimming and attenuation of anhedonia produced by endotoxin administration. […] (Stone et al., Eur. J. Pharmacol. (2001) 420: 97-102) Because dp6FNE like all other antidepressants has an initial anorexic effect and acutely reduces the consumption of sweet solutions, in the test for anhedonia it was necessary to employ a non-nutritive hedonic behavior, FUST (sniffing of estrous female urine). […] (Stone et al., Neuropsychopharmacology (2011) 14: 319-331); Sun et al., J. Neurosci. Methods (2003) 126:35-40; Sun et al., Behavioral Pharmacology (2008) 19: 334-338).
Mice were swum for 15 min/d on 4 d and tested for the response to acute i.p dp6FNE (1 or 3 mg/kg) alone or in combination with 8-OHDPAT (0.05 mg/kg) and corticosterone (3 mg/kg) on the 5th and final swim (15 min after drug administration). […] Comparison groups receiving currently available antidepressants were treated acutely i.p. or chronically (14 d osmotic pumps) with either desmethylimipramine (DMI) (10 mg/kg), fluoxetine (5 mg/kg), escitalopram (5 mg/kg), bupropion (10 mg/kg) or ketamine (10 mg/kg).
Although corticosteroids are well known to produce depression (Gourley et al., Biol Psychiatry (2008) 64: 884-890), this occurs at high doses only. […] Mice were swum for 3 d and given either vehicle (0.8% ethanol) or corticosterone (12.5 μg/ml) in their drinking water.
As described in Example 4a, the cocktail was tested in a mouse model of chronic depression (RFS).

Fos expression in the LC = Fos expression in the LC during the RFS model; type: in vivo, mice; conditions: prazosin 0.2 mg/kg; vehicle animals compared with previous results without prazosin
Experimental: as §1, with “21-31). […] In the tail suspended mice the analogous reductions were 53.5±7.2% (LC) and 36.7±3.1 (PVH). […] These findings thus indicate that a dose of […] dp6FNE that has preferential inhibitory effects on the LC during depression exists.” for “21-31).”

[7] = tested on: open field behavior (locomotion and center square occupancy); experiment: Open field motor activity and anxiety after capture and injection; type: in vivo, mice; conditions: corticosterone 12.5 μg/ml in drinking water (4.6 mg/kg)
Experimental: To determine if the agonists had motor stimulating or sedative actions, mice were allowed to explore an open field undisturbed for 60 min and were then captured and injected i.p. with either vehicle or the full “cocktail” of the 3 […] (dp6FNE 1 mg/kg; 8-OHDPAT, 0.05 mg/kg; corticosterone, 3 mg/kg, praz, 0.2 mg/kg) before being replaced in the field for a final 15 min. The vehicle injection (praz present) reduced subsequent locomotion and time spent in the center of the field by −76.8±11.0% and −78.5±12.4%, respectively, from preceding levels, indicating an anxiogenic effect of the injection procedure. The injection of the “cocktail”, however, rescued both locomotion and center time to −12.9±1.9% and −25.3±6.9%, respectively, indicating a strong anti-anxiety effect with no motor stimulation or sedation (FIG. 9).
In addition to its antidepressant property, the cocktail is also effective in producing a significant antianxiety effect without sedation in these animals. The applicants have tested for this effect using an open field in which animals are placed and permitted to explore freely after which they are captured, restrained briefly for an ip. injection of saline and returned to the field for a final 15 min. […]

PVH Fos expression = experiment: Fos expression in the PVH, RFS model, corticosterone in the drinking water; type: in vivo, mice; conditions: versus veh
Excerpt: (§3) GR agonists such as corticosterone and dexamethasone are well known to produce selective inhibition of the neural activity of parvocellular PVH neurons at low doses (Keller-Wood et al., Endo Rev (1982) 5: 1-24; Dallman et al., Ann N Y Acad Sci 91987) 512: 402-414). This effect was shown in a previous experiment on the effects of corticosterone in the drinking water on Fos expression in the PVH or piriform cortex of mice subjected to the RFS model (Stone et al., eur J Pharmacol (2007) In Press). The animals were swum a total of 3 times and on the night prior to the 3rd swim given corticosterone at 12.5, 25 or 50 μg/ml in the drinking water. These concentrations produced nighttime intakes of 4.6, 10.7 and 14.2 mg/kg. The mice were given the 3rd and final swim the following morning, 0800-1000 h, and were anesthetized and perfused 70 min after the start of the swim for immunohistochemical assay of Fos in the PVH and in the piriform cortex, a control region that supports positively motivated behavior (Carr et al., Neuropsychopharmacology (2010) 35: 752-763; Stone et al., Neurosci Biobehav Revs (2008a) 32: 508-524).

[8] = tested on: Fos expression in the piriform cortex; experiment: Fos expression in the piriform cortex, RFS model, corticosterone in the drinking water; type: in vivo, mice; conditions: versus veh
Excerpt: as §3

[9] = oral; cited from earlier work
[10] = corticosterone 12.5 μg/ml in drinking water, nighttime intake 4.6 mg/kg, mice swum for 3 d, versus vehicle
[11] = corticosterone 25 μg/ml in drinking water, nighttime intake 10.7 mg/kg
[12] = corticosterone 50 μg/ml in drinking water, nighttime intake 14.2 mg/kg

c1ccc(C2CC2)c(OCC2=NCCN2)c1 [cirazoline]
effect by itself on movement and motor behavior in the home cage ([1]; cirazoline i.p., unpublished results): pronounced inhibition of movement and motor behavior
behavioral inhibition in the home cage following handling and injection stress ([1]; i.p., dp6FNE (1 mg/kg) in the presence of phentolamine, cirazoline (0.1 mg/kg)): not effective in reducing behavioral inhibition

Cc1cccc([C@H](C)c2cnc[nH]2)c1C [dexmedetomidine]
antidepressant activity in the tail suspension test [2]: equally effective
antidepressant activity in the repeated open-space forced swim test [3]: only 6FNE was effective

NCC(O)c1cc(O)c(O)cc1F (stereo not drawn) [6FNE, 6-fluoronorepinephrine]
time in the center of the field ([4]; 6FNE ivt. or dp6FNE i.p.): restored this behavior back to the level of the non-handled controls
effect on motor activity in the open field ([4]; mouse, in vivo, ip): no change in activity compared to the non-handled animals
antidepressant activity in the tail suspension test [2]: equally effective
passage of the blood brain barrier [5]: does not pass the blood brain barrier
antidepressant activity in the repeated open-space forced swim test [3]: effective

COc1cc2nc(N3CCN(C(=O)c4ccco4)CC3)nc(N)c2cc1OC [prazosin]
effect of receptor blockade on the antidepressant actions of dp6FNE in the RFS ([6]; high dose systemic prazosin or α2-antagonist atipamezole given with dp6FNE): significantly reversed the antidepressant actions of pro-drug in the RFS
effect of the antagonist on LC or PVH Fos (Fos expression in the LC): no effect

CC(N)Cc1ccccc1 (stereo not drawn) [amphetamine]
increase in activity in the open field ([4]; amphetamine 5 mg/kg i.p.): 10 fold

CCC1(c2cnc[nH]2)Cc2ccccc2C1 [atipamezole]
effect of receptor blockade on the antidepressant actions of dp6FNE in the RFS ([6]; mouse, in vivo): significantly reversed the antidepressant actions of pro-drug in the RFS

C[C@]12C[C@H](O)[C@H]3[C@@H](CCC4=CC(=O)CC[C@@]43C)[C@@H]1CC[C@@H]2C(=O)CO [corticosterone]
increase of distance swum [6, 10]: +107.7±15.8%
reduction in immobility [6, 10]: −36.6±5.7%
acute antidepressant (anti-immobility) effect in the RFS [6]: rapid and effective preclinical antidepressant actions
acute antidepressant (anti-immobility) effect in the RFS ([6]; listed as corticosteroid): immediate and effective antidepressant action
open field locomotion [7]: No effect
reduction of PVH Fos expression (PVH Fos expression; corticosterone 12.5 μg/ml in drinking water, nighttime intake 4.6 mg/kg, 70 min after start of 3rd swim): −51.7±17%
reduction of PVH Fos expression (PVH Fos expression; [11]): −66.8±8.5%
reduction of PVH Fos expression (PVH Fos expression; [12]): −63.7±11.0%
increase of Fos expression in the piriform cortex ([8]; corticosterone 12.5 μg/ml in drinking water, nighttime intake 4.6 mg/kg): +203.3±78.6%
increase of Fos expression in the piriform cortex [8, 11]: +175.3±53.9%
increase of Fos expression in the piriform cortex [8, 12]: +193.3±67.4%

CNC1(c2ccccc2Cl)CCCCC1=O (stereo not drawn) [ketamine]
acute antidepressant (anti-immobility) effect in the RFS [6]: None of the currently available antidepressants that were tested, including ketamine, appeared acutely effective

CNCCCN1c2ccccc2CCc2ccccc21 [DMI, desmethylimipramine]
acute effect in the repeated open-space swim test ([3]; acute i.p., dp6FNE at 1, 3 and 10 mg/kg given along with phentolamine 5 mg/kg i.p.): complete lack of effect

C[C@@H]1C[C@H]2[C@@H]3CCC4=CC(=O)C=C[C@]4(C)[C@@]3(F)[C@@H](O)C[C@]2(C)[C@@]1(O)C(=O)COP(=O)(O)O [dexamethasone sodium phosphate]
bioavailability [9]: approximately 0.5
